Active and inactive are the calls of the source. No cut-off for these calls is given here.
Assays:
NCI-H2087 [1] = experiment: Antiproliferative activity against human NCI-H2087 cells overexpressing JAK1 assessed as suppression of cell growth incubated for 72 hrs by Cell-TiterGlo assay; type: functional, cell-based
NCI-H1975 [2] = experiment: Upregulation of STAT3 phosphorylation level in human NCI-H1975 cells; type: functional, cell-based
NCI-H1975 [3] = experiment: Induction of cell cycle arrest in human NCI-H1975 cells assessed as accumulation of cells at G2/M phase at 1 to 10 uM incubated for 24 hrs by propidium iodide/RNase staining based analysis; type: functional; conditions: dose 1-10 µM
NCI-H2087 [4] = experiment: Induction of apoptosis in human NCI-H2087 cells at 1 to 10 uM incubated for 24 hrs by Annexin V/Propidium iodide staining based analysis; type: functional, cell-based; conditions: dose 1-10 µM
BaF3 = experiment: Antiproliferative activity against mouse parental BaF3 cells assessed as cell growth inhibition incubated for 72 hrs by Cell-TiterGlo assay; type: functional
NCI-H2087 [5] = experiment: Inhibition of colony formation in human NCI-H2087 cells at 10 uM incubated for 14 days by crystal violet staining based 2D colony formation assay; type: functional, cell-based; conditions: time 14.0 day
HCT-116 = experiment: Antiproliferative activity against human HCT-116 cells overexpressing JAK1 assessed as suppression of cell growth incubated for 72 hrs by Cell-TiterGlo assay; type: functional, cell-based
U2OS = experiment: Antiproliferative activity against human U2OS cells overexpressing JAK1 assessed as suppression of cell growth incubated for 72 hrs by Cell-TiterGlo assay; type: functional, cell-based
NCI-H2087 [6] = experiment: Upregulation of STAT3 phosphorylation level in human NCI-H2087 cells; type: functional, cell-based
[7] = biological target: T1, Tyrosine-protein kinase JAK3 (Homo sapiens, UniProt P52333); experiment: Inhibition of N-terminal GST-tagged human recombinant JAK3 (781 to end residues) extracted from baculovirus infected in Sf9 cells using Poly(4:1 Glu, Tyr) as substrate preincubated for 15 min followed by substrate addition and measured after 1 hr by ADP-Glo kinase assay
T1 sequence (P52333 whole entry): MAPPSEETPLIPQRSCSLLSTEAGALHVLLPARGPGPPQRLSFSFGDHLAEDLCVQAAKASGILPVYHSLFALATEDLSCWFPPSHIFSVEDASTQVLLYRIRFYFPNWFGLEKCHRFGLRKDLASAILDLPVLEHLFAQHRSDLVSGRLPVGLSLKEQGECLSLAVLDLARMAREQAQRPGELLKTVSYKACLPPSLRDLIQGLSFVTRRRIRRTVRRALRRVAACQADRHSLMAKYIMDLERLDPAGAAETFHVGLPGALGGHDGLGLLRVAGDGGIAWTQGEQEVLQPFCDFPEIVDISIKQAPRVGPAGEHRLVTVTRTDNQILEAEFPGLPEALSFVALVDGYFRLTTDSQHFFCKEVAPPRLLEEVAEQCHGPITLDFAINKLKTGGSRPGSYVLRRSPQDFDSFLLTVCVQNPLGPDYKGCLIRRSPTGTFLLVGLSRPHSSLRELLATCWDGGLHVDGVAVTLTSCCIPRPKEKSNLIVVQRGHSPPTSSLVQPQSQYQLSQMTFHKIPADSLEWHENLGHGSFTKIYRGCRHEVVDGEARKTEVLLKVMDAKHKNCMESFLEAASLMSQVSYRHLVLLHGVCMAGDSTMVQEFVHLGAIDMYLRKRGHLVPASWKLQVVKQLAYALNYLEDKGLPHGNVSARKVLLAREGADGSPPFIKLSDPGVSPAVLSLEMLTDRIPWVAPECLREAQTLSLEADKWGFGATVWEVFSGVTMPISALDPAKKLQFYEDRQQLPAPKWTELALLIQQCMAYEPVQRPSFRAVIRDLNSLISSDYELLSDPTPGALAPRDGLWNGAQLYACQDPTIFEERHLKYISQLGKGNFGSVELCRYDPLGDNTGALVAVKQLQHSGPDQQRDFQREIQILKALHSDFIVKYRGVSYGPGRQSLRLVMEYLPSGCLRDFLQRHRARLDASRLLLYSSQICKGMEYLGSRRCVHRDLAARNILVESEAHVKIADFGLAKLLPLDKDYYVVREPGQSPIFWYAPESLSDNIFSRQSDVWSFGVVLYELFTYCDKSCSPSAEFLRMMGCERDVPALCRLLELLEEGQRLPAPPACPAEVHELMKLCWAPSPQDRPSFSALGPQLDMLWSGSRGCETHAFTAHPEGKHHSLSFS

NCI-H2087 [8] = experiment: Induction of cell cycle arrest in human NCI-H2087 cells assessed as accumulation of cells at G2/M phase at 1 to 10 uM incubated for 24 hrs by propidium iodide/RNase staining based analysis; type: functional; conditions: dose 1-10 µM
NCI-H1975 [9] = experiment: Inhibition of colony formation in human NCI-H1975 cells at 10 uM incubated for 14 days by crystal violet staining based 2D colony formation assay; type: functional, cell-based; conditions: time 14.0 day
[10] = biological target: Signal transducer and activator of transcription 3 (Homo sapiens) (UniProt P40763); experiment: Inhibition of STAT3 phosphorylation in human NCI-H1975 cells incubated for 1 hr by Western blot analysis; type: cell-based; conditions: dose 1-10 µM
Signal transducer and activator of transcription 3 (Homo sapiens), sequence (P40763 whole entry): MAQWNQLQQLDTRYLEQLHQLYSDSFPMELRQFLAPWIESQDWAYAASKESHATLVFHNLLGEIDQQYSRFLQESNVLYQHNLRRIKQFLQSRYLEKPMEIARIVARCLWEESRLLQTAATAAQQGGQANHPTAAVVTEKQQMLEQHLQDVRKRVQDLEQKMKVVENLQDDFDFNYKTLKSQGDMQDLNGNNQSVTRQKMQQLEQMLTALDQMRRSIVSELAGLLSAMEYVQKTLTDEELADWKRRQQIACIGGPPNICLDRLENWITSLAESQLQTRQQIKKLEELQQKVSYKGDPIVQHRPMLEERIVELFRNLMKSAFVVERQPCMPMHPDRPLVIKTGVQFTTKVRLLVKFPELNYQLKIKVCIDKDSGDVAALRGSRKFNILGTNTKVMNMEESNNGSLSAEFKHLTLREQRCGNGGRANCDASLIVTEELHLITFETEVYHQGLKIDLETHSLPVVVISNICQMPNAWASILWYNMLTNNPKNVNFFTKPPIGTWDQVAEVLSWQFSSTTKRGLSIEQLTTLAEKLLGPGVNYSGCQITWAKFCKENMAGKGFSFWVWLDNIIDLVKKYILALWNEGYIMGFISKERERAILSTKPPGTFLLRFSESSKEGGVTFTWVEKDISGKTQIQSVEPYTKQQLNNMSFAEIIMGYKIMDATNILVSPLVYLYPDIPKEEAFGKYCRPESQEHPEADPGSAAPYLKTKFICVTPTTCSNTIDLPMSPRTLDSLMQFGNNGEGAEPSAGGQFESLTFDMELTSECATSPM

NCI-H1975 [11] = experiment: Induction of apoptosis in human NCI-H1975 cells at 1 to 10 uM incubated for 24 hrs by Annexin V/Propidium iodide staining based analysis; type: functional, cell-based; conditions: dose 1-10 µM
NCI-H1975 [12] = experiment: Antiproliferative activity against human NCI-H1975 cells assessed as cell growth inhibition incubated for 72 hrs by Cell-TiterGlo assay; type: functional
[13] = biological target: T2, Tyrosine-protein kinase JAK2 (Homo sapiens, UniProt O60674); experiment: Inhibition of N-terminal GST-tagged human recombinant JAK2 (804 to end residues) extracted from baculovirus infected in Sf9 cells using IGF1Rtide as substrate preincubated for 15 min followed by substrate addition and measured after 1 hr by ADP-Glo kinase assay
T2 sequence (O60674 whole entry): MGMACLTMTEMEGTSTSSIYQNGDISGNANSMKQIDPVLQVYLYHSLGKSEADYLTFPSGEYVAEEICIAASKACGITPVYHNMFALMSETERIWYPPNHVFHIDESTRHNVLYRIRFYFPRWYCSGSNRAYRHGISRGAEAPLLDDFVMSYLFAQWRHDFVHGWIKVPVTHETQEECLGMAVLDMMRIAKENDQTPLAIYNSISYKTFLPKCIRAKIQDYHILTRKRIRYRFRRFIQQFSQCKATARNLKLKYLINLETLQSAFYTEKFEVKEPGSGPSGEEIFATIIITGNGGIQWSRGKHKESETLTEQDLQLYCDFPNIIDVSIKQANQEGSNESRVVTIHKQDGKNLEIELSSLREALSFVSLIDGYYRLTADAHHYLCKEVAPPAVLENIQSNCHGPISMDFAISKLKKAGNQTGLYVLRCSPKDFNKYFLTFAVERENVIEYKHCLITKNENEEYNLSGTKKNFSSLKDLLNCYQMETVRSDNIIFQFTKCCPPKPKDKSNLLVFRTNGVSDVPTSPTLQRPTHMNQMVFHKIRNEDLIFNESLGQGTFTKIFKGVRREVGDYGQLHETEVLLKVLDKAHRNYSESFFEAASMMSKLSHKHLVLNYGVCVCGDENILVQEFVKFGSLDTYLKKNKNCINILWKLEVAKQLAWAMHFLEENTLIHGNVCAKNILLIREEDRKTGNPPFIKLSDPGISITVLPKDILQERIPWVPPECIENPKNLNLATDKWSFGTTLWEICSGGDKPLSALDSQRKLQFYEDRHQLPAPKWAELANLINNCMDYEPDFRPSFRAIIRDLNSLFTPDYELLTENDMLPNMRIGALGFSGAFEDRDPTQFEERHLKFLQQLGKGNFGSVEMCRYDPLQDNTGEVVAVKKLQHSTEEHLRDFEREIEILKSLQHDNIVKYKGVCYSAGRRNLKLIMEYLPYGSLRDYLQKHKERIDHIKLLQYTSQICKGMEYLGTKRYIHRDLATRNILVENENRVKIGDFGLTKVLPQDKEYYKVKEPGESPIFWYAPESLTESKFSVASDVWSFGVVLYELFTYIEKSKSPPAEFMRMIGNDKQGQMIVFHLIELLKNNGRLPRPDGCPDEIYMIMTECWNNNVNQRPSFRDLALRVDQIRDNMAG

NCI-H2087 [14] = experiment: Antiproliferative activity against human NCI-H2087 cells assessed as cell growth inhibition incubated for 72 hrs by Cell-TiterGlo assay; type: functional
NCI-H1975 [15] = experiment: Synergistic antiproliferative activity against human NCI-H1975 cells assessed as cell growth inhibition measured after 48 hrs in presence of osimertinib by celltiterglo analysis; type: functional, cell-based
UMUC3 = experiment: Antiproliferative activity against human UMUC3 cells overexpressing JAK1 assessed as suppression of cell growth incubated for 72 hrs by Cell-TiterGlo assay; type: functional, cell-based
NCI-H1975 [16] = experiment: Antiproliferative activity against human NCI-H1975 cells overexpressing JAK1 assessed as suppression of cell growth incubated for 72 hrs by Cell-TiterGlo assay; type: functional, cell-based
HT-29 = experiment: Antiproliferative activity against human HT-29 cells overexpressing JAK1 assessed as suppression of cell growth incubated for 72 hrs by Cell-TiterGlo assay; type: functional, cell-based
[17] = Antiproliferative activity against mouse Ba/F3-TEL-JAK1 cells assessed as cell growth inhibition incubated for 72 hrs by Cell-TiterGlo assay; type: functional
[18] = biological target: Signal transducer and activator of transcription 3 (Homo sapiens) (UniProt P40763); experiment: Inhibition of STAT3 phosphorylation in human NCI-H2087 cells incubated for 1 hr by Western blot analysis; type: cell-based; conditions: dose 1-10 µM
[19] = biological target: Tyrosine-protein kinase JAK1 (Homo sapiens, UniProt P23458); experiment: Inhibition of N-terminal GST-tagged human recombinant JAK1 (438 to end residues) extracted from baculovirus infected in Sf9 cells using KKHTDDGYMPMSPGVA as substrate preincubated for 15 min followed by substrate addition and measured after 1 hr by ADP-Glo kinase assay
Tyrosine-protein kinase JAK1, sequence (P23458 whole entry): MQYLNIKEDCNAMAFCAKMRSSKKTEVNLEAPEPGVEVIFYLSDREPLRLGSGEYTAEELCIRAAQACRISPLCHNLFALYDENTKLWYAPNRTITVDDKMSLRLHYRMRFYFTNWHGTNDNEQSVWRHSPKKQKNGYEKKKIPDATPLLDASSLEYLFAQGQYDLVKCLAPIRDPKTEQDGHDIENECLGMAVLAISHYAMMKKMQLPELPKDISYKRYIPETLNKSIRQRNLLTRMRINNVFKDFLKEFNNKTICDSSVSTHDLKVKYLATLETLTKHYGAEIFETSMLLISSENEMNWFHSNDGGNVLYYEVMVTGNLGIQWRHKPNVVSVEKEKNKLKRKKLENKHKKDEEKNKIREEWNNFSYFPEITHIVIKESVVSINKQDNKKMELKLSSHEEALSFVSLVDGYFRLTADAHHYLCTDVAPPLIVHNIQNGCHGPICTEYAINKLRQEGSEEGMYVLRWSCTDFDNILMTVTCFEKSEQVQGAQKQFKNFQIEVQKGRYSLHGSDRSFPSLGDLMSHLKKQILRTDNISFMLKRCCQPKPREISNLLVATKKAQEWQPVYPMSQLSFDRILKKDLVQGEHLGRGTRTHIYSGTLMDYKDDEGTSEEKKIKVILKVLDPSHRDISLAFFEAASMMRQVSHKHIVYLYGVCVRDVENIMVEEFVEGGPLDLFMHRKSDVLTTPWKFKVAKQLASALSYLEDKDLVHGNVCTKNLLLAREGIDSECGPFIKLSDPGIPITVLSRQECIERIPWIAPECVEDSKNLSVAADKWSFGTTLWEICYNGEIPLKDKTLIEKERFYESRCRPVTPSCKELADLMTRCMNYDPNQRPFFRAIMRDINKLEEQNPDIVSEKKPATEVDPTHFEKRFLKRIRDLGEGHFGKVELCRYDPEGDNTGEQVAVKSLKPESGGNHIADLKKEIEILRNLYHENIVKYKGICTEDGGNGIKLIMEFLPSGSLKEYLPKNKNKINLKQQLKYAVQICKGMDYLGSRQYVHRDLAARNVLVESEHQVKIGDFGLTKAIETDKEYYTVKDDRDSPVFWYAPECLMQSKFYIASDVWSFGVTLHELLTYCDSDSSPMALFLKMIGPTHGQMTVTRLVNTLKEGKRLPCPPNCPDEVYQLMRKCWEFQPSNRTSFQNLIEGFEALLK

NCI-H2087 [20] = experiment: Inhibition of colony formation in human NCI-H2087 cells at 10 uM incubated for 14 days by crystal violet staining based 2D colony formation assay relative to control; type: functional; conditions: NCI-H2087, 336 h, time 14 day
[21] = biological target: T3, Aurora kinase C (Homo sapiens) (UniProt Q9UQB9); experiment: Inhibition of human Aurora C at 0.1 uM preincubated for 20 min followed by 33P-ATP addition measured after 2 hrs by P81 filter-binding method relative to control; conditions: time 140.0 min
T3 sequence (whole entry): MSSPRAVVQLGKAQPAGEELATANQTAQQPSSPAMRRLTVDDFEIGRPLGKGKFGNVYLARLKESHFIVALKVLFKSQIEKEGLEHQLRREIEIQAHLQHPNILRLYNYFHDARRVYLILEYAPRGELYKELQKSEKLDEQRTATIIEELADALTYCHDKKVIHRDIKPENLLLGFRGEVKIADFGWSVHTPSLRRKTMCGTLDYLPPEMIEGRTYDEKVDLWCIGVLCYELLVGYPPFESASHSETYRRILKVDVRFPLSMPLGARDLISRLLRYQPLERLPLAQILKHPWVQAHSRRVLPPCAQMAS

[22] = biological target: Receptor-type tyrosine-protein kinase FLT3 (Homo sapiens) (UniProt P36888); experiment: Inhibition of human FLT3 at 0.1 uM preincubated for 20 min followed by 33P-ATP addition measured after 2 hrs by P81 filter-binding method relative to control; conditions: time 140.0 min
[23] = biological target: T2, Tyrosine-protein kinase JAK2; experiment: Inhibition of human JAK2 at 0.1 uM preincubated for 20 min followed by 33P-ATP addition measured after 2 hrs by P81 filter-binding method relative to control; conditions: time 140.0 min
[24] = biological target: Non-receptor tyrosine-protein kinase TYK2 (Homo sapiens) (UniProt P29597); experiment: Inhibition of human TYK2 at 0.1 uM preincubated for 20 min followed by 33P-ATP addition measured after 2 hrs by P81 filter-binding method relative to control; conditions: time 140.0 min
Non-receptor tyrosine-protein kinase TYK2 (Homo sapiens), sequence (P29597 whole entry): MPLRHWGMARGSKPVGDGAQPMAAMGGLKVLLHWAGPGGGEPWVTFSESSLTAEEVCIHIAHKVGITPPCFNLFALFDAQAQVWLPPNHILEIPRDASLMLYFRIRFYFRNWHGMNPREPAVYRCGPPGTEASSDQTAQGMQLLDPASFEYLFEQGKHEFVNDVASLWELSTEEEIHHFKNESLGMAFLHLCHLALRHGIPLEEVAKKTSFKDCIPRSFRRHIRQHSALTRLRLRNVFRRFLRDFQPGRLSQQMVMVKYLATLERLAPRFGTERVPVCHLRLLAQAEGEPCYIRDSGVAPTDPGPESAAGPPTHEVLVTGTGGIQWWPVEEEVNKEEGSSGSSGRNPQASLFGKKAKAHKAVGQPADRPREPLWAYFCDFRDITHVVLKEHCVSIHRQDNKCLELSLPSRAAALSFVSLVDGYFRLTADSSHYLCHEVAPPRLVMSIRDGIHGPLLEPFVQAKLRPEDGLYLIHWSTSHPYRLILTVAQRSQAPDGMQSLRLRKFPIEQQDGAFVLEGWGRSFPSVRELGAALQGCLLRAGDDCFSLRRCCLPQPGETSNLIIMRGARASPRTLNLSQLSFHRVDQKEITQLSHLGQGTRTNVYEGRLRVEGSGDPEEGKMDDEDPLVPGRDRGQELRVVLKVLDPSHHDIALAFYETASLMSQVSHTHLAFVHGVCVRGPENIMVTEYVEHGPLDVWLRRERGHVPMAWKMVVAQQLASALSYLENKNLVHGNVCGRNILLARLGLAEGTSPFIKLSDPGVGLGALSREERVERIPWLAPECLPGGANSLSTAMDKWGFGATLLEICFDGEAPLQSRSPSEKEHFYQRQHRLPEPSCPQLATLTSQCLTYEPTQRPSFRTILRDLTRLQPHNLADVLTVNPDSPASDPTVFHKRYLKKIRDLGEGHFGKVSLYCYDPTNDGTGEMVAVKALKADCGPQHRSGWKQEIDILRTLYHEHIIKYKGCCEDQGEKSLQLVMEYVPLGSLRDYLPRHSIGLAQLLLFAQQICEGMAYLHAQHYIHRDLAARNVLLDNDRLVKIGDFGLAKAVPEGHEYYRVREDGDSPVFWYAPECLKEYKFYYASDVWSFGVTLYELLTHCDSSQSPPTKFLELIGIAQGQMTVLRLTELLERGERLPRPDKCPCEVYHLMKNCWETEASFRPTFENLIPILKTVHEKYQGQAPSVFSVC

NCI-H1975 [25] = experiment: Inhibition of colony formation in human NCI-H1975 cells at 10 uM incubated for 14 days by crystal violet staining based 2D colony formation assay relative to control; type: functional; conditions: NCI-H1975, 336 h, time 14 day
[26] = biological target: T4, Tyrosine-protein kinase JAK3 (Homo sapiens) (UniProt P52333); experiment: Inhibition of human JAK3 at 0.1 uM preincubated for 20 min followed by 33P-ATP addition measured after 2 hrs by P81 filter-binding method relative to control; conditions: time 140.0 min
T4 sequence (whole entry): T1 sequence (P52333 whole entry)

IC50 [7]	inhibition [10]	GI50 (NCI-H1975 [12])	IC50 [13]	GI50 (NCI-H2087 [14])	inhibition [18]	Compound	Activity (NCI-H2087 [1])	Activity (NCI-H1975 [2])	Activity (NCI-H1975 [3])	Activity (NCI-H2087 [4])	GI50 (BaF3)	inhibition (NCI-H2087 [5])	Activity (HCT-116)	Activity (U2OS)	Activity (NCI-H2087 [6])	Activity (NCI-H2087 [8])	inhibition (NCI-H1975 [9])	Activity (NCI-H1975 [11])	Activity (NCI-H1975 [15])	GI50 [17]	also measured
4900 nM	Dose-dependent-effect	3190 nM	2750 nM	5650 nM	Dose-dependent-effect	Cc1nn(C)cc1Nc1ncc2scc(-c3cccc(NC(=O)[C@@H](C)N4CCN(C)CC4)c3)c2n1	Active	Active	Active	Active	2910 nM	Active	Active	Active	Active	Active	Active	Active	Active	450 nM	Activity (UMUC3): Active; Activity (NCI-H1975 [16]): Active; Activity (HT-29): Active
1920 nM		36700 nM	613 nM	40200 nM		COc1nn(C)cc1Nc1nccc(-c2c[nH]c3c(NC(=O)[C@@H](C)N4CCN(C)CC4)cccc23)n1 [GOLIDOCITINIB]			Active	Active	3670 nM	Active				Active	Active	Active	Active	514 nM	IC50 [19]: 82 nM
4030 nM	Dose-dependent-effect	2460 nM	3580 nM	6810 nM	Dose-dependent-effect	COc1nn(C)cc1Nc1ncc2scc(-c3cccc(NC(=O)[C@@H](C)N4CCN(C)CC4)c3)c2n1	Active	Active	Active	Active	1450 nM		Active	Active	Active	Active		Active	Active	447 nM	inhibition at 10 µM (NCI-H2087 [20]): 100%; inhibition [21]: 83.7%; inhibition [22]: 82.5%; inhibition [23]: 61.8%; inhibition [24]: 18.1%; inhibition at 10 µM (NCI-H1975 [25]): 100%; Activity (UMUC3): Active; Activity (NCI-H1975 [16]): Active; Activity (HT-29): Active; inhibition [26]: 15.5%
1600 nM	Dose-dependent-effect	6670 nM	759 nM	5960 nM	Dose-dependent-effect	COc1nn(C)cc1Nc1ncc2scc(-c3cccc(NC(=O)[C@@H](C)N4CCN(CCO)CC4)c3)c2n1			Active	Active	614 nM					Active		Active	Active	193 nM	inhibition at 10 µM (NCI-H2087 [20]): 100%; inhibition at 10 µM (NCI-H1975 [25]): 100%

From ChEMBL document CHEMBL6103581, “Identification of Thieno[3,2-d]pyrimidine derivatives as potent and selective Janus Kinase 1 inhibitors” (Eur J Med Chem, 2025)
